Results taken from US11083677B2, “Cosmetic base including amide alcohol, and cosmetic” (Kokyu Alcohol Kogyo Co., Ltd., priority 2016, dated 2021).
“Also recorded” adds a separate entry of the source.

Legend:
[1] = Evaluation of solubility and gelling ability (critical gelation concentration, sample tube inversion method); format: physicochemical
Experimental: The amide alcohol and each liquid were heated and mixed, and the critical gelation concentration was measured by sample tube inversion method.
Sample tube used: used tube: Maruemu screw tube No. 7 (trunk diameter 35 mm, total length 78 mm)

[2] = Solubility of glycerin with various alcohols

Structure (SMILES) | solubility and gelling ability ([1]; Ethanol) | behaviour with glycerin (in words) ([1]; Glycerin) | concentration for thickening ([1]; Glycerin) | behaviour with glycerin (in words) ([1]; Glycerin, listed as 4HN CHBA) | concentration for thickening ([1]; Octyldodecanol) | solubility and gelling ability ([1]; Octyldodecyl myristate) | solubility and gelling ability ([1]; Squalane) | solubility and gelling ability ([1]; Triethylhexanoin) | behaviour with water (in words) ([1]; Water) | solubility and gelling ability ([1]; Water) | solubility and gelling ability ([1]; Glycerin) | solubility and gelling ability ([1]; Octyldodecanol) | solubility with glycerin (in words) [2] | behaviour with ester oil (in words) [1]
O=C(CCCO)NC1CCCCC1 [4HN-CHBA, 4-hydroxy-N-cyclohexyl, butyramide] | S | thickened | (≥12 wt %) | thickening/gelation | (≥18 wt %) | I | I | I | solubility in water | S |  |  |  | 
CCCCC(CC)CNC(=O)CCCO (centres unmarked) [4HN-EHBA, 4-hydroxy-N-2-ethylhexyl, butyramide] | S |  |  |  |  | S | I | I |  | I | S | S | can be dissolved | 
CCCCCCCCCCCCNC(=O)CCCO [4HN-LBA, 4-hydroxy-N-lauryl, butyramide] | S | gelled |  |  |  |  |  |  | emulsification-gelled |  |  |  |  | gelled
CCCCCCCCCCCCCCNC(=O)CCCO [4HN-MBA, 4-hydroxy-N-myristyl, butyramide] | S |  |  |  |  |  |  |  |  |  | I |  |  | 
CCCCCCCCNC(=O)CCCO [4HN-OBA, 4-hydroxy-N-octyl, butyramide] | S | gelled; also recorded: thickening/gelation |  |  |  |  | I |  | solubility in water | S |  | S |  | gelled
CCCCCCCC/C=C\CCCCCCCCNC(=O)CCCO [4HN-OLBA, 4-hydroxy-N-oleyl, butyramide] | S |  |  |  |  |  |  |  |  | I | I | S |  | 
CCCCCCCCCCCCCCCCCCNC(=O)CCCO [4HN-STBA, 4-hydroxy-N-stearyl, butyramide] | I |  |  |  |  |  |  |  |  | I | I |  |  | 
CCCCCCCCCCCCNC(=O)CCCCCO [6HN-LHA, 6-hydroxy-N-lauryl, hexylamide] | S |  |  |  |  |  |  |  |  | I | I |  |  | 
